What was measured:
Assay type in all cases: cell-based
[1] = tested on: SW480; assay: Antiproliferative Activity In Cell Line SW480 (MTT); conditions: Homo sapiens, 144 h, 6 days post addition, average of at least three separate experiments
Description: [The procedure below names another cell line; the source says it served here with some conditions changed.] (§1) The estrogen receptor negative epithelial breast carcinoma line (MDA-MB-435) was purchased from American Type Cell Culture Collection (ATCC; Rockville, Md.) and was grown in the medium recommended by ATCC. For analysis of the effect of the test compounds on growth of these cells, the cells were plated at 2000 cells per well in a 96-well tissue culture plate ("test plate"), and were incubated overnight at 37° C. with 5% CO2. The next day, the test compounds were dissolved in 100% dimethyl sulfoxide (DMSO) to yield a 10 mM stock solution. Each compound was diluted with sterile distilled water to 1 mM and then was added to triplicate wells of a 96-well "master plate" containing medium in a sufficient quantity to yield a final concentration of 40 μM. The compounds were serially diluted in medium in the "master plate." One-fourth final volume of the diluted compounds was transferred to duplicate "test plates." DMSO was added to a row of "control cells" such that; the final concentration of DMSO in each well was 0.1%. The "test plates" were returned to the incubator, and 3 days post addition of test compound, one "test plate" was analyzed as described below. Similarly, 5 days after addition of test compound, the second "test plate" also was analyzed as described below.
(§2) 3-(4,5-dimethylthiazole-2-yl)-2,5-diphenyl-2H-tetrazolium bromide (thiazolyl blue; MTT) was added to each well to yield a final concentration of 1 mg/ml. The plate was then incubated at 37° C. for 3 hours. The MTT-containing medium was then removed and 50 μl 100% ethanol was added to each well to dissolve the resulting formazan metabolite. […] Absorbencies were read in a microtiter plate reader (Molecular Dynamics) at a wavelength of 570 nm with a 650 nm reference. Percent inhibition was calculated by subtracting the blank from all wells, then subtracting the division of the average absorbance of each test triplicate by the average of the controls from 1.00. Inhibitory concentrations (IC50 and IC90) were determined from the linear regression of a plot of the logarithm of the concentration versus the percent inhibition. […]

[2] = tested on: MDA-MB-435 cells; assay: Effect Of Test Compounds On Cell Cycle (propidium iodide, FACS); conditions: for % Of Cells In Each Cell Cycle Phase: G1 / % Of Cells In Each Cell Cycle Phase: G2/M / % Of Cells In Each Cell Cycle Phase: S: day 1 post addition; for effect on cell cycle (in words): statement in words, summarizing Tables I-IV
Description: For analysis of the effect of the compounds on cell cycle progression, MDA-MB-435 cells (ATCC; Rockville, Md.) were plated at 1×10^6 cells/10 mls per 10 cm dish in the following growth medium: RPMI 1640+10% Heat-Inactivated Fetal Bovine Serum, 2 mM L-glutamine and 50 U/ml pen-strep (all from GIBCO/BRL, Gaithersburg, Md.). The cells were incubated overnight at 37° C. with 5% CO2. The next day, 10 μl of each of the compounds to be tested, in a 100% DMSO solution, was added to individual dishes to obtain /1000× final concentration of the stock solution. In addition, 10 μl 100% DMSO was added to a control dish. The final concentration of DMSO in all plates, including the control, was 0.1%. The plates were returned to the incubator.
Thereafter, at various periods of time, the medium in each plate was removed to a 50 ml centrifuge tube. The cell layer remaining in the dish was then washed with 5 ml of phosphate buffered saline (PBS; GIBCO/BRL). The PBS was removed and combined with the medium in the appropriate tube. The cells were trypsinized for 5 minutes at 37° C., and the solution was collected and combined with the medium and PBS in the appropriate tubes. The tubes were then centrifuged for 5 minutes at 1200 rpm. The cells were fixed by removing the supernatant, tapping the tube to distribute the pellet, then adding 5 mls of cold 70% ethanol while vortexing gently. The cells were then stored at -20° C. for>24 hours.
The cell-containing tubes were taken out of freezer and allowed to sit at room temperature for 20-30 minutes. The tubes were centrifuged at 3000 rpm for 5 minutes. The supernatant was removed, the pellets were washed with 5 ml PBS, and the tubes were centrifuged as above. Subsequently, the supernatant was removed, and the pellet was resuspended in 0.5 ml PBS. Thereafter, 0.5 ml RNAse A (1 mg/ml in PBS) was added to each tube, and the tubes were incubated at 37° C. for 15 minutes. 100 μl propidium iodide (Sigma, St. Louis, Mo.) (1 mg/ml in PBS) was added to each tube, and the tubes were then incubated at room temperature for 2-3 minutes. Each resulting solution was passed through a filter cap tube (Becton Dickinson, San Jose, Calif., #2235).
Samples were read in a FACSort machine (Becton-Dickinson) using the manufacturer's CellQUEST program, and analyzed with the manufacturer is ModFIT software. This measurement provides an indication of the percent of cells in each of the following phases: G0/G1, DNA synthesis (S) and G2/M phases.
The results of a cell cycle progression experiment analyzed at day 1 post addition of test compounds I, II and III are summarized below in Table IV.

[3] = tested on: MDA-MB-435; assay: Antiproliferative Activity In Cell Line MDA-MB-435 (MTT); conditions: Homo sapiens, average of at least three separate experiments
Description: as §1
3-(4,5-dimethylthiazole-2-yl)-2,5-diphenyl-2H-tetrazolium bromide (thiazolyl blue; MTT) was added to each well to yield a final concentration of 1 mg/ml. The plate was then incubated at 37° C. for 3 hours. The MTT-containing medium was then removed and 50 μl 100% ethanol was added to each well to dissolve the resulting formazan metabolite. […] Absorbencies were read in a microtiter plate reader (Molecular Dynamics) at a wavelength of 570 nm with a 650 nm reference. Percent inhibition was calculated by subtracting the blank from all wells, then subtracting the division of the average absorbance of each test triplicate by the average of the controls from 1.00. Inhibitory concentrations (IC50 and IC90) were determined from the linear regression of a plot of the logarithm of the concentration versus the percent inhibition.

[4] = tested on: HCT-116; assay: Antiproliferative Activity In Cell Line HCT-116 (MTT); conditions: Homo sapiens, 96 h, 4 days post addition, average of at least three separate experiments
Description: [The procedure below names another cell line; the source says it served here with some conditions changed.] as §1, §2

Row | IC50 [1] [nM] | IC50 [3] [nM] | IC50 [4] [nM] | Compound | % Of Cells In Each Cell Cycle Phase: G1 ([2]; 0.03 μM) [%] | % Of Cells In Each Cell Cycle Phase: G2/M ([2]; 0.03 μM) [%] | % Of Cells In Each Cell Cycle Phase: S ([2]; 0.03 μM) [%] | % Of Cells In Each Cell Cycle Phase: G1 ([2]; 0.1 μM) [%] | % Of Cells In Each Cell Cycle Phase: G2/M ([2]; 0.1 μM) [%] | % Of Cells In Each Cell Cycle Phase: S ([2]; 0.1 μM) [%] | effect on cell cycle (in words) [2] | further results
1 | 220 | 50 | 230 | Cn1cc(C2=C(c3cn(CO)c4ccccc34)C(=O)NC2=O)c2ccc([N+](=O)[O-])cc21 [Compound II, 3-(1-Hydroxymethyl-1H-indol-3-yl)-4-(1-methyl-6-nitro-1H-indol-3-yl)-pyrrole-2,5-dione] | 45.45 | 16.50 | 38.06 | 15.54 | 60.40 | 24.06 | cause an accumulation of cells in the G2/m phase of the cell cycle | % Of Cells In Each Cell Cycle Phase: G1 ([2]; 0.3 μM): 1.11%; % Of Cells In Each Cell Cycle Phase: G2/M ([2]; 0.3 μM): 73.90%; % Of Cells In Each Cell Cycle Phase: S ([2]; 0.3 μM): 24.99%
2 | 200 | 30 | 170 | Cn1cc(C2=C(c3c[nH]c4ccccc34)C(=O)NC2=O)c2ccc([N+](=O)[O-])cc21 [Compound I, 3-(1H-Indol-3-yl)-4-(1-methyl-6-nitro-1H-indol-3-yl)-pyrrole-2,5-dione] | 45.30 | 20.03 | 34.67 | 8.27 | 66.52 | 25.21 | cause an accumulation of cells in the G2/m phase of the cell cycle | % Of Cells In Each Cell Cycle Phase: G1 ([2]; 0.01 μM): 44.95%; % Of Cells In Each Cell Cycle Phase: G2/M ([2]; 0.01 μM): 14.00%; % Of Cells In Each Cell Cycle Phase: S ([2]; 0.01 μM): 41.04%
3 | 1860 | 600 | 1660 | Cn1cc(C2=C(c3c[nH]c4cc([N+](=O)[O-])ccc34)C(=O)NC2=O)c2ccccc21 [Compound III, 3-(1-Methyl-1H-indol-3-yl)-4-(6-nitro-1H-indol-3-yl)-pyrrole-2,5-dione] | – | – | – | – | – | – | cause an accumulation of cells in the G2/m phase of the cell cycle | % Of Cells In Each Cell Cycle Phase: G1 ([2]; 1 μM): 27.21%; % Of Cells In Each Cell Cycle Phase: G2/M ([2]; 1 μM): 42.60%; % Of Cells In Each Cell Cycle Phase: S ([2]; 1 μM): 30.19%; % Of Cells In Each Cell Cycle Phase: G1 ([2]; 3 μM): 3.26%; % Of Cells In Each Cell Cycle Phase: G2/M ([2]; 3 μM): 47.99%; % Of Cells In Each Cell Cycle Phase: S ([2]; 3 μM): 48.75%; % Of Cells In Each Cell Cycle Phase: G1 ([2]; 10 μM): 10.41%; % Of Cells In Each Cell Cycle Phase: G2/M ([2]; 10 μM): 54.34%; % Of Cells In Each Cell Cycle Phase: S ([2]; 10 μM): 35.25%

From patent US6048887A, “Substituted pyrroles” (Hoffmann-La Roche Inc., priority 1999, dated 2000)
